US8399515B2, “Five and fifteen carbon fatty acids for treating metabolic disorders and as nutritional supplements” (Baylor Research Institute, priority 2003, dated 2013)
“And” between values parts separate entries of the source, which are not always exact repeats. Equal values may be shown once.

Assays:
Assay type in all cases: cell-based, human
[1] = system: fibroblasts from patients with Very-long-chain acyl-CoA dehydrogenase (VLCAD) deficiency, severe cardiac form; assay: Propionylcarnitine from oxidation of odd-carbon fatty acids in VLCAD (cardiac) fibroblasts; conditions: VLCAD cardiac fibroblasts, one line per patient, 72 hours incubation
Protocol: (§1) Fibroblasts obtained from patients with inherited defects of mitochondrial fat oxidation were cultured in the presence of omega deuterated odd-carbon numbered fatty acids, as described in Roe, C. R., Sweetman, L., Roe, D. S., David, F., Brunengraber, H., “Effective Dietary Treatment of Cardiomyopathy & Rhabdomyolysis in Long-Chain Fat Oxidation Disorders using an Anaplerotic Odd-Chain Triglyceride,” J. Clin. Invest. 110 (2): 259-269 (2002).
(§2) The data in Table 1 represents testing of cultured fibroblasts derived from ten patients afflicted with Very-long-chain acyl-CoA dehydrogenase (VLCAD) deficiency (six patients with the severe cardiac form and four with the non-cardiac milder phenotype), two patients with Mitochondrial Trifunctional Protein (MTP) deficiency, five patients having L-3-hydroxy-acyl-CoA dehydrogenase (LCHAD) deficiency and three patients with Short-chain acyl-CoA dehydrogenase (SCAD) deficiency.

[2] = system: fibroblasts from patients with Short-chain acyl-CoA dehydrogenase (SCAD) deficiency; assay: Propionylcarnitine from oxidation of odd-carbon fatty acids in SCAD fibroblasts; conditions: SCAD fibroblasts, one line per patient, 72 hours incubation
Protocol: as §1, §2

[3] = system: control / normal fibroblasts; assay: Fate of odd-carbon fatty acids in control (normal) fibroblasts; set-up: *C3 acylcarnitine / *C5 acylcarnitine / *C7 acylcarnitine / *C9 acylcarnitine / *C11 acylcarnitine / *C13 acylcarnitine / *C15 acylcarnitine: unit not given here
Protocol: Fibroblasts obtained from patients with inherited defects of mitochondrial fat oxidation were cultured in the presence of omega deuterated odd-carbon numbered fatty acids, as described in Roe, C. R., Sweetman, L., Roe, D. S., David, F., Brunengraber, H., “Effective Dietary Treatment of Cardiomyopathy & Rhabdomyolysis in Long-Chain Fat Oxidation Disorders using an Anaplerotic Odd-Chain Triglyceride,” J. Clin. Invest. 110 (2): 259-269 (2002). […]

[4] = system: fibroblasts from patients with L-3-hydroxy-acyl-CoA dehydrogenase (LCHAD) deficiency; assay: Propionylcarnitine from oxidation of odd-carbon fatty acids in LCHAD fibroblasts; conditions: LCHAD fibroblasts, one line per patient, 72 hours incubation
Protocol: as §1, §2

[5] = system: fibroblasts from patients with inherited defects of mitochondrial fat oxidation; assay: Propionylcarnitine production in all fat-oxidation-defective fibroblast cell lines (comparison in words); conditions: all VLCAD, MTP, LCHAD, SCAD cell lines; C5 versus C7; C15 versus C5 or C7
Protocol: as §1, §2

[6] = system: MCAD-deficient fibroblasts; assay: Fate of odd-carbon fatty acids in MCAD-deficient fibroblasts; set-up: *C3 acylcarnitine / *C5 acylcarnitine / *C7 acylcarnitine / *C9 acylcarnitine / *C11 acylcarnitine / *C13 acylcarnitine / *C15 acylcarnitine: unit not given here; conditions: for *C3 acylcarnitine / *C5 acylcarnitine / *C7 acylcarnitine / *C9 acylcarnitine / *C11 acylcarnitine / *C13 acylcarnitine / *C15 acylcarnitine: MCAD fibroblasts, N 4
Protocol: as §1
Fibroblasts from four patients with MCAD deficiency and one heterozygote (carrier) indicate that odd-carbon fatty acids containing more than seven carbons can not be effectively used in that disease. […]

[7] = system: fibroblasts from patients with Mitochondrial Trifunctional Protein (MTP) deficiency; assay: Propionylcarnitine from oxidation of odd-carbon fatty acids in MTP fibroblasts; conditions: MTP fibroblasts, one line per patient, 72 hours incubation
Protocol: as §1, §2

[8] = system: fibroblasts from MCAD heterozygote (carrier); assay: Fate of odd-carbon fatty acids in MCAD carrier fibroblasts; set-up: unit not given here
Protocol: as §1
Fibroblasts from four patients with MCAD deficiency and one heterozygote (carrier) indicate that odd-carbon fatty acids containing more than seven carbons can not be effectively used in that disease. […] That any C3 was produced is presumably due to overlapping

[9] = system: fibroblasts from patients with VLCAD deficiency, non-cardiac milder phenotype; assay: Propionylcarnitine from oxidation of odd-carbon fatty acids in VLCAD (non-cardiac) fibroblasts; conditions: VLCAD non-cardiac fibroblasts, one line per patient, 72 hours incubation
Protocol: as §1, §2

Structure (SMILES): CCCCCCCCCCCCCCC(=O)O [C15, n-pentadecanoic acid]
- Propionylcarnitine from oxidation of fatty acid [1]: 11.7 nmol/mg Protein/72 hours and 5.3 nmol/mg Protein/72 hours and 21.6 nmol/mg Protein/72 hours and 8.0 nmol/mg Protein/72 hours and 6.6 nmol/mg Protein/72 hours and 9.9 nmol/mg Protein/72 hours
- Propionylcarnitine from oxidation of fatty acid [2]: 56.7 nmol/mg Protein/72 hours and 30.3 nmol/mg Protein/72 hours and 37.6 nmol/mg Protein/72 hours
- *C3 acylcarnitine ([3]; CONTROL MEAN, N = 4): 46.8
- *C5 acylcarnitine ([3]; CONTROL MEAN, N = 4): 2.8
- *C7 acylcarnitine ([3]; CONTROL MEAN, N = 4): 0.8
- *C9 acylcarnitine ([3]; CONTROL MEAN, N = 4): 2.2
- *C11 acylcarnitine ([3]; CONTROL MEAN, N = 4): 0.9
- *C13 acylcarnitine ([3]; CONTROL MEAN, N = 4): 0.7
- *C15 acylcarnitine ([3]; CONTROL MEAN, N = 4): 3.8
- Propionylcarnitine from odd carbon precursor ([3]; NORMAL fibroblasts): 46.8 nmol/mg Protein/72 hours
- Boosting the production of propionyl-CoA (in words) ([3]; normal cells, compared with C7 or C5): more effective in normal cells
- Propionylcarnitine from oxidation of fatty acid [4]: 34.6 nmol/mg Protein/72 hours and 15.1 nmol/mg Protein/72 hours and 15.9 nmol/mg Protein/72 hours and 6.9 nmol/mg Protein/72 hours and 13.9 nmol/mg Protein/72 hours
- Quantity of propionylcarnitine produced, compared with the other odd-carbon fatty acids [5]: less propionylcamitine
- *C3 acylcarnitine ([6]; Maximum): 19.6
- *C5 acylcarnitine ([6]; Maximum): 1.6
- *C7 acylcarnitine ([6]; Maximum): 9.9
- *C9 acylcarnitine ([6]; Maximum): 17.5
- *C11 acylcarnitine ([6]; Maximum): 1.0
- *C13 acylcarnitine ([6]; Maximum): 0.9
- *C15 acylcarnitine ([6]; Maximum): 4.7
- *C3 acylcarnitine ([6]; Mean): 9.8
- *C5 acylcarnitine ([6]; Mean): 1.2
- *C7 acylcarnitine ([6]; Mean): 6.5
- *C9 acylcarnitine ([6]; Mean): 10.9
- *C11 acylcarnitine ([6]; Mean): 0.7
- *C13 acylcarnitine ([6]; Mean): 0.4
- *C15 acylcarnitine ([6]; Mean): 2.6
- *C3 acylcarnitine ([6]; Minimum): 3.1
- *C5 acylcarnitine ([6]; Minimum): 0.5
- *C7 acylcarnitine ([6]; Minimum): 3.5
- *C9 acylcarnitine ([6]; Minimum): 4.3
- *C11 acylcarnitine ([6]; Minimum): 0.3
- *C13 acylcarnitine ([6]; Minimum): 0.0
- *C15 acylcarnitine ([6]; Minimum): 1.0
- Propionylcarnitine from odd carbon precursor ([6]; MCAD-1 fibroblast cell line): 6.9 nmol/mg Protein/72 hours
- Propionylcarnitine from odd carbon precursor ([6]; MCAD-2 fibroblast cell line): 19.6 nmol/mg Protein/72 hours
- Oxidation of the fatty acid in MCAD deficient fibroblasts (in words) ([6]; four MCAD patients' fibroblasts): a block in oxidation at C9 & C7
- Propionylcarnitine from oxidation of fatty acid [7]: 31.4 nmol/mg Protein/72 hours and 46.5 nmol/mg Protein/72 hours
- *C3 acylcarnitine [8]: 33.5
- *C5 acylcarnitine [8]: 1.7
- *C7 acylcarnitine [8]: 0.6
- *C9 acylcarnitine [8]: 1.7
- *C11 acylcarnitine [8]: 0.5
- *C13 acylcarnitine [8]: 0.2
- *C15 acylcarnitine [8]: 1.9
- Propionylcarnitine from oxidation of fatty acid [9]: 16.4 nmol/mg Protein/72 hours and 19.2 nmol/mg Protein/72 hours and 36.0 nmol/mg Protein/72 hours and 11.5 nmol/mg Protein/72 hours
